Here are results for two molecules from patent publication US5310665A (Gist-brocades, N.V., priority 1990, dated 1994).

In test [1] the target is T1, Actinoplanes missouriensis glucose isomerase variant M88SH290N (M88S/H290N) (Actinoplanes missouriensis, UniProt P12851, H290N/M88S).
T1 construct: made in house; host or cells: E. coli K514
Kind of test: Steady-state kinetics of glucose isomerase mutant. Particulars: 60° C., 10 mM Mg2+, pH 7.5. The format is biochemical. As to the method:
(§1) Alternatively, the D-fructose produced during the isomerization reaction can be determined enzymatically using sorbitol dehydrogenase and NADH.
(§2) As a measure of specificity the quotient is Vmax /Km is sometimes used (Wells et al., ibid). […] These temperatures are chosen for practical reasons.
(§3) Activities were measured on purified enzyme. The coupled sorbitol dehydrogenase assay was used for xylose, the cysteine-carbazole or discontinuous sorbitol dehydrogenase method was used for glucose.

Test [2] has as its target T2, Actinoplanes missouriensis glucose isomerase variant H290N (Actinoplanes missouriensis, UniProt P12851, H290N).
T2 construct: made in house; host or cells: E. coli K514
As to the kind of experiment: Steady-state kinetics of glucose isomerase mutant. Format: biochemical. Particulars: 60° C., 10 mM Mg2+, pH 7.5. As to the method: as §1, §2, §3

The target of test [3] is T3, Actinoplanes missouriensis glucose isomerase, wild type, SEQ ID NO: 1 (Actinoplanes missouriensis, UniProt P12851).
T3 construct: made in house; host or cells: E. coli K514
As to the kind of experiment: Steady-state kinetics of glucose isomerase (coupled sorbitol dehydrogenase assay for xylose; cysteine-carbazole or sorbitol dehydrogenase method for glucose). Format: biochemical. Particulars: 60° C., 10 mM Mg2+, pH 7.5.

The subject of test [4] is naturally occurring glucose isomerases (various microorganisms). Particulars: range over microorganisms; cited from earlier work.

The term Km denotes the substrate concentration at which the rate is half of its maximum.

SMILES strings stand for the structures.

T3 sequence (P12851 2-394 limits assumed): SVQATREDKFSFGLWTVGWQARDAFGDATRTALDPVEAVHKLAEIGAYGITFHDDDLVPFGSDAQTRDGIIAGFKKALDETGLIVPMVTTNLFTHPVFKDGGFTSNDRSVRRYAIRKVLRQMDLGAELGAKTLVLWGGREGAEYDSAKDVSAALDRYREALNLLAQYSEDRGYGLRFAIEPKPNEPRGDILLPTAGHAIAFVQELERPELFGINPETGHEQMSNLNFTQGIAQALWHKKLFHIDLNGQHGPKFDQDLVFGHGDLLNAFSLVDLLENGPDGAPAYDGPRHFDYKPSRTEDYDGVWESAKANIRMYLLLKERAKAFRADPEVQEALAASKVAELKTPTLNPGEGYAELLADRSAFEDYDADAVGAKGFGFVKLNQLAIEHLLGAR
T2 sequence (P12851 2-394 H290N limits assumed): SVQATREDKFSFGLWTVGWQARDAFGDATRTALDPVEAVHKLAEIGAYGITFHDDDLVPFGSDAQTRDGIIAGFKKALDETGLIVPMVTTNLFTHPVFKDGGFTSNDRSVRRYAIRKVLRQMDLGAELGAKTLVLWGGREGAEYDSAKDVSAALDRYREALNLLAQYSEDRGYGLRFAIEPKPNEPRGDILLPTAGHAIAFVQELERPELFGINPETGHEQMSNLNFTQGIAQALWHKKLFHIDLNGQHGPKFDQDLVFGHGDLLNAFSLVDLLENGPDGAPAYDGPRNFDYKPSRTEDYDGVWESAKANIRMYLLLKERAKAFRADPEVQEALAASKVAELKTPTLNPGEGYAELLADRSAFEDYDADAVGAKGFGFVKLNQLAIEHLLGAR
T1 sequence (P12851 2-394 M88S/H290N limits assumed): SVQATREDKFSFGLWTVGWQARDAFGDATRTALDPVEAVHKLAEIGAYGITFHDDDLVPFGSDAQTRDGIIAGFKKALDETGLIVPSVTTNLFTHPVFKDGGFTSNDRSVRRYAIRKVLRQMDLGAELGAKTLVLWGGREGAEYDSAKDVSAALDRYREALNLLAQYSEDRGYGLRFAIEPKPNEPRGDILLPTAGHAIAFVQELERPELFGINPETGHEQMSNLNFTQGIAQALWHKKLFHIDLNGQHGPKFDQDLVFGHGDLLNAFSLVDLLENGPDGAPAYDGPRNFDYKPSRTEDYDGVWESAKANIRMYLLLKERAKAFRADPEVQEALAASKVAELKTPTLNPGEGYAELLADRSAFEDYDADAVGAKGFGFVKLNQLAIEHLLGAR

For `O=C[C@H](O)[C@@H](O)[C@H](O)[C@H](O)CO` [glucose], the Vmax gl came out at 49.770 µmol/min/mg in test [1], 41.800 µmol/min/mg in test [2] and 34.800 µmol/min/mg in test [3].
For `O=C[C@H](O)[C@@H](O)[C@H](O)CO` [xylose], the Michaelis constant (Km) in test [4] was 5 to 93 mM.
